Measured values as given in patent US20210255193A1, “LYSINE REACTIVE PROBES AND USES THEREOF” (The Scripps Research Institute, priority 2017, published 2021).
Entries after “also recorded” stand apart in the source; their conditions may differ.

Assays:
Assay in all cases: competitive gel-based ABPP, apparent IC50
Assay type in all cases: binding
PNPO = biological target: T1, PNPO (Homo sapiens, UniProt Q9NVS9); details: read-out: apparent IC50, blockade of probe labeling of K100 in PNPO
T1 construct: Flag; expressed in transfected cells; host or cells: HEK 293T, transient transfection, soluble lysate
T1 sequence (Q9NVS9 1-261): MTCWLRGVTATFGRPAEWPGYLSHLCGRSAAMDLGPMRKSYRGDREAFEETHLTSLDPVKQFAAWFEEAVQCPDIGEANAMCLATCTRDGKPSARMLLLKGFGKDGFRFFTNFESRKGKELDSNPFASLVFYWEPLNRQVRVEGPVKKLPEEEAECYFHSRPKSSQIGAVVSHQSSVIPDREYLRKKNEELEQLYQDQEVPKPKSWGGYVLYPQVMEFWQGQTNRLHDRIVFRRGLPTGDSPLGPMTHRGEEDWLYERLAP
Description: (§1) Recombinant expression of proteins by transient transfection. HEK 293T cells were grown to 50% confluency in 10 ml DMEM supplemented with 10% fetal bovine serum (FBS), penicillin, streptomycin and glutamine in 10 cm tissue culture dishes. 3 μg of DNA was diluted in 500 μL DMEM and 30 μL of PEI (MW 40,000, 1 mg ml^−1, Polysciences) were added. The mixture was incubated at room temperature for 30 min and added dropwise to the cells. Cells were grown for 48 h at 37° C. with 5% CO2. Cells were washed with cold PBS, scraped with cold PBS and cell pellets were isolated by centrifugation (1,400 g, 3 min, 4° C.), and stored at −80° C. until use. Cell pellets were resuspended in PBS, lysed by sonication and fractionated (100,000 g, 45 min) to yield soluble and membrane fractions. The soluble fraction was adjusted to a final protein concentration of 1 mg ml^−1 for gel-based ABPP experiments.
(§2) Competitive gel-based ABPP and apparent IC50 values. 50 μl of soluble proteome (1 mg ml^−1) expressing the indicated protein were treated with fragment electrophiles (1 μl of 50× stock solution in DMSO) at ambient temperature for 1 h. The indicated probe (fluorophore or alkyne-containing, 1 μl of a 500 μM solution, final concentration=10 μM) was then added and allowed to react for an additional 1 h. CuAAC and in-gel fluorescence analysis were performed as described above. For quantification of inhibition and apparent IC50 determination, the percentage of labeling was determined by quantifying the integrated optical intensity of the bands using ImageLab 5.2.1 software (BioRad). Nonlinear regression analysis was used to determine the IC50 values from a dose-response curve generated using GraphPad Prism 7.

PFKP = biological target: T2, PFKP (Homo sapiens, UniProt Q01813); details: read-out: apparent IC50, blockade of probe labeling of recombinant PFKP
T2 construct: Flag; expressed in transfected cells; host or cells: HEK 293T, transient transfection, soluble lysate; cDNA clone 5180268 (Dharmacon)
T2 sequence (Q01813 1-784): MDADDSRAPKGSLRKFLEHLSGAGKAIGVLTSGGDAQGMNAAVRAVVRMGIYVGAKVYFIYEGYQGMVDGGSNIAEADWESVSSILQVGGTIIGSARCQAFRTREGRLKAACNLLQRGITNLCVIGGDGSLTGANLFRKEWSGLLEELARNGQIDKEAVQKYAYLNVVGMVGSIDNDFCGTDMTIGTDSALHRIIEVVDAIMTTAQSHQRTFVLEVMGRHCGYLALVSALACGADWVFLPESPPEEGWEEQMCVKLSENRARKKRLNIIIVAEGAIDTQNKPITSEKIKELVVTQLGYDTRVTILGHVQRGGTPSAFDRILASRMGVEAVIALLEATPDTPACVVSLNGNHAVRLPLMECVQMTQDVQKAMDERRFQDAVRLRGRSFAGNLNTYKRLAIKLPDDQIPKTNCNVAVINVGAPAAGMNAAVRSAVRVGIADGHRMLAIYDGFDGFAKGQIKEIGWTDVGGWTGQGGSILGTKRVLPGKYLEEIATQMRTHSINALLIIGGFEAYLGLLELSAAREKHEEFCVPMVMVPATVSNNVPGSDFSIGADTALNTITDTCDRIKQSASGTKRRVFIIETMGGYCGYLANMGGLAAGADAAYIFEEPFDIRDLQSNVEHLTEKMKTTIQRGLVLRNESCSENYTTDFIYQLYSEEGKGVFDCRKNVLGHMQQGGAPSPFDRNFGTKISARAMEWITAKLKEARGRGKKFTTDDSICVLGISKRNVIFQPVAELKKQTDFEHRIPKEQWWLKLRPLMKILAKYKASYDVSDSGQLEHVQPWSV
Description: as §1, §2

[1] = biological target: T3, Flag-tagged SIN3A (a.a. 1-400) (Homo sapiens, UniProt Q96ST3); details: probe 17, HEK293T cell lysates
T3 construct: expressed in transfected cells; host or cells: HEK 293T, transient transfection, lysate
T3 sequence (Q96ST3 1-400): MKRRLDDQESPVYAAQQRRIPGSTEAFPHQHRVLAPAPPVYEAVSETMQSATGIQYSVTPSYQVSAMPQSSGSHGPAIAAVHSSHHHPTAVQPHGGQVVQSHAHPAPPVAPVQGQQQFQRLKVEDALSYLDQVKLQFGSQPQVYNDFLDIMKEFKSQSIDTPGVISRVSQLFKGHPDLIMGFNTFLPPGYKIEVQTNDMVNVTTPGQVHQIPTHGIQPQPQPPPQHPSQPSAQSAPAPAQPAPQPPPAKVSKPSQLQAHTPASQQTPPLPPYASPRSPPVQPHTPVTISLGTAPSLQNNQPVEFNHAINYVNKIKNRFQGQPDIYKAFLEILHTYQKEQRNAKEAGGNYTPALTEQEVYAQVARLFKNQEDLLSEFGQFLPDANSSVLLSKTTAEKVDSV
Description: as §1, §2

NUDT2 = biological target: T4, NUDT2 (Homo sapiens, UniProt P50583)
T4 construct: expressed in transfected cells; host or cells: HEK 293T, transient transfection, soluble lysate; synthesized gene (IDT)
T4 sequence (P50583 whole entry): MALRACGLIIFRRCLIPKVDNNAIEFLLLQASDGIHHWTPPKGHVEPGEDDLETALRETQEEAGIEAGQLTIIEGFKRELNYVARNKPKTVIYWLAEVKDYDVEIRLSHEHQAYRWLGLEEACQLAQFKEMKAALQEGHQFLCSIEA
Description: as §1, §2

## O=C(CCc1cn(-c2ccccc2)nc1-c1ccccc1)Oc1c(F)c(F)c(F)c(F)c1F [fragment 19, Pentafluorophenyl 3-(1,3-diphenyl-1H-pyrazol-4-yl)propanoate]
PNPO
  IC50: 3000 nM

## O=C(Oc1c(F)c(F)c(F)c(F)c1F)C(c1ccccc1)c1ccccc1 [fragment 20, Pentafluorophenyl 2,2-diphenylacetate]
PFKP
  IC50: 2000 nM

## O=C(Oc1c(F)c(F)c(F)c(F)c1F)c1cc(C(F)(F)F)cc(C(F)(F)F)c1 [fragment 21, Pentafluorophenyl 3,5-bis(trifluoromethyl)benzoate]
[1]
  blockade of probe labeling of K155: site-specific and complete blockade of probe labeling of K155; also recorded: blocks probe 17 labeling of SIN3A at K155 in a concentration-dependent manner
[1]; read-out: apparent IC50, blockade of probe labeling of K155
  IC50: 5000 nM

## COC(=O)NC(=NC(=O)OCC1c2ccccc2-c2ccccc21)n1cccn1 [fragment 49, N-Methoxycarbonyl-N′-9-fluorenylmethoxycarbonyl-pyrazole-1-carboxamidine]
NUDT2; FIG. 11G
  blockade of probe 1-labeling of K89 in NUDT2: quantitatively blocked
NUDT2; gel-based ABPP, read-out: apparent IC50, blockade of probe labeling of NUDT2
  IC50: 2000 nM
